Data from the NIST ThermoML archive (doi:10.1021/je700224j).

Conditions: Liquid

CCCCn1cc[n+](C)c1.F[P-](F)(F)(F)(F)F [1-butyl-3-methylimidazolium hexafluorophosphate]
Conditions	mass density [kg/m3]
293.48 K, 1000 kPa	1369.9
293.49 K, 101.33 kPa	1369.8
293.49 K, 20000 kPa	1378.3
293.5 K, 10000 kPa	1374
293.5 K, 40000 kPa	1385.9
293.51 K, 5000 kPa	1371.7
293.51 K, 30000 kPa	1382.2
302.73 K, 101.33 kPa	1362
312.86 K, 101.33 kPa	1353.5
322.28 K, 101.33 kPa	1345.5
322.3 K, 10000 kPa	1350.6
322.3 K, 20000 kPa	1355.2
322.31 K, 1000 kPa	1346.2
322.31 K, 40000 kPa	1363.3
322.33 K, 5000 kPa	1348.2
322.33 K, 30000 kPa	1359.3
332.73 K, 101.33 kPa	1337
342.5 K, 101.33 kPa	1328.7
352.29 K, 101.33 kPa	1320.9
352.3 K, 40000 kPa	1339.8
352.31 K, 1000 kPa	1321.6
352.31 K, 10000 kPa	1326.3
352.31 K, 20000 kPa	1331.2
352.32 K, 5000 kPa	1323.7
352.34 K, 30000 kPa	1335.6
373.3 K, 5000 kPa	1306.6
373.31 K, 10000 kPa	1309.4
373.32 K, 30000 kPa	1319
373.33 K, 101.33 kPa	1303.9
373.33 K, 1000 kPa	1304.4
373.33 K, 40000 kPa	1323.3
373.34 K, 20000 kPa	1314.3
391.27 K, 10000 kPa	1294.7
391.28 K, 30000 kPa	1304.7
391.3 K, 101.33 kPa	1289.1
391.3 K, 5000 kPa	1292
391.31 K, 20000 kPa	1300
391.31 K, 40000 kPa	1309.1
391.32 K, 1000 kPa	1289.5
414.91 K, 10000 kPa	1275.6
414.92 K, 20000 kPa	1281
414.92 K, 40000 kPa	1290.5
414.93 K, 101.33 kPa	1269.7
414.93 K, 5000 kPa	1272.6
414.93 K, 30000 kPa	1285.9
414.94 K, 1000 kPa	1270.2

CCCCn1cc[n+](C)c1.F[B-](F)(F)F [1-butyl-3-methylimidazolium tetrafluoroborate]
Conditions	mass density [kg/m3]
292.94 K, 101.33 kPa	1204.8
293.49 K, 10000 kPa	1208.5
293.49 K, 30000 kPa	1216.5
293.49 K, 40000 kPa	1220.4
293.5 K, 1000 kPa	1204.7
293.5 K, 20000 kPa	1212.6
293.51 K, 5000 kPa	1206.5
302.8 K, 101.33 kPa	1197.5
312.79 K, 101.33 kPa	1190.2
322.3 K, 10000 kPa	1187.7
322.3 K, 40000 kPa	1200.4
322.31 K, 1000 kPa	1183.6
322.31 K, 20000 kPa	1192
322.31 K, 30000 kPa	1196.2
322.33 K, 5000 kPa	1185.4
322.83 K, 101.33 kPa	1182.9
332.53 K, 101.33 kPa	1175.8
342.72 K, 101.33 kPa	1168.6
352.31 K, 10000 kPa	1166.5
352.32 K, 101.33 kPa	1161.7
352.32 K, 5000 kPa	1164.1
352.32 K, 20000 kPa	1171.1
352.32 K, 30000 kPa	1175.7
352.33 K, 1000 kPa	1162.1
352.33 K, 40000 kPa	1180.01
373.31 K, 5000 kPa	1149.4
373.31 K, 20000 kPa	1156.8
373.32 K, 101.33 kPa	1146.9
373.32 K, 10000 kPa	1152
373.33 K, 30000 kPa	1161.6
373.33 K, 40000 kPa	1166.1
373.34 K, 1000 kPa	1147.3
391.27 K, 1000 kPa	1135
391.29 K, 101.33 kPa	1134.5
391.29 K, 10000 kPa	1139.7
391.29 K, 20000 kPa	1144.8
391.29 K, 30000 kPa	1149.7
391.29 K, 40000 kPa	1154.4
391.31 K, 5000 kPa	1137.1
414.92 K, 101.33 kPa	1116.5
414.92 K, 5000 kPa	1119.4
414.92 K, 20000 kPa	1127.4
414.92 K, 40000 kPa	1137.4
414.93 K, 1000 kPa	1117.1
414.93 K, 10000 kPa	1122.1
414.93 K, 30000 kPa	1132.5
